This passage reports logP results from the SangsterLogP compilation.

A short description of the data set: method code SF, from DOI: 10.1021/jf00070a034.

Compound `C=CCNc1nc(Cl)nc(NCC=C)n1` registered a logP of 2.75. Compound `CCCc1ccc(NC(=O)N(C)C)cc1` returned a logP of 2.55. `CCCCCC(C)Nc1nc(Cl)nc(NCC)n1` (stereo not drawn) registered a logP of 4.74.

For `CCCC(C)(C)C(=O)Nc1ccc(Cl)cc1`, the logP is 3.83.

For the compound `CCNc1nc(Cl)nc(NC2CC2)n1`, the lipophilicity (logP) is 2.13. In turn, `CNC(=O)Nc1cccc(OC)c1` showed a logP of 1.26.

In the case of `CCNc1nc(Cl)nc(NC2CCC2)n1`, the lipophilicity (logP) amounted to 2.77. Consider `CC1(NC(=O)Nc2ccccc2)CCCCC1`, for which the lipophilicity (logP) is 3.6. Then `CC(C)CNC(=O)Nc1ccc(Cl)c(Cl)c1`, with 4.48. For `CN(C)C(=O)Nc1cccc(Cc2ccccc2)c1`, the logP is 2.83. Compound `O=C(Cc1ccccc1)Nc1ccc([N+](=O)[O-])cc1` showed a logP of 3.17. With `CN(C)C(=O)Nc1ccc(Cl)cc1`, the log partition coefficient (logP) is 2.01. `O=C(Cc1ccccc1)Nc1ccccc1` showed a lipophilicity (logP) of 2.72. `CN(C)C(=O)Nc1cccc(CCc2ccccc2)c1` displayed a lipophilicity (logP) of 3.21. In turn, `CCCC(C)C(=O)Nc1ccc(C)c(Cl)c1` (stereo not drawn) came in with a logP of 4.31. Regarding `CCNc1nc(Cl)nc(NCC2CC2)n1`, the log partition coefficient (logP) worked out at 2.85. `CCNc1nc(Cl)nc(NC2CCCCC2)n1`: the logP was found to be 3.63.

`C=CC(C)C(=O)Nc1ccc(Cl)c(Cl)c1` (stereo not drawn) came in with a logP of 3.49.
